Experimental data published in ChEMBL document CHEMBL4334471, “Discovery of 1,8-disubstituted-[1,2,3]triazolo[4,5-c]quinoline derivatives as a new class of Hippo signaling pathway inhibitors” (Bioorg Med Chem Lett, 2019).

Columns and labels:
[1] = biological target: Serine/threonine-protein kinase WNK2 (Homo sapiens) (UniProt Q9Y3S1); experiment: Inhibition of recombinant human WNK2 (166 to 489 residues) assessed as residual activity at 10 uM using myelin basic protein as substrate incubated for 40 mins in presence of [gamma33P]ATP by scintillation counting based radiometry assay relative to control
[2] = biological target: cGMP-dependent protein kinase 1 (Homo sapiens) (UniProt Q13976); experiment: Inhibition of recombinant full-length human PKG1alpha assessed as residual activity at 10 uM using RRRLSFAEPG as substrate incubated for 40 mins in presence of [gamma33P]ATP by scintillation counting based radiometry assay relative to control
[3] = biological target: Serine/threonine-protein kinase D3 (Homo sapiens) (UniProt O94806); experiment: Inhibition of recombinant full-length human PKD3 assessed as residual activity at 10 uM using KKLNRTLSVA as substrate incubated for 40 mins in presence of [gamma33P]ATP by scintillation counting based radiometry assay relative to control
[4] = biological target: Serine/threonine-protein kinase haspin (Homo sapiens) (UniProt Q8TF76); experiment: Inhibition of human Haspin (471 to end residues ) assessed as residual activity at 10 uM using RARTLSFAEPG as substrate after 40 mins by [gamma-33ATP] radiometric assay relative to control
[5] = biological target: Serine/threonine-protein kinase MRCK gamma (Homo sapiens) (UniProt Q6DT37); experiment: Inhibition of recombinant human MRCKgamma assessed as residual activity at 10 uM using KKRNRTLTV as substrate incubated for 40 mins in presence of [gamma-33ATP by scintillation counting based radiometry assay relative to control
[6] = biological target: Tyrosine-protein kinase SYK (Homo sapiens) (UniProt P43405); experiment: Inhibition of recombinant human full length SYK assessed as residual activity at 10 uM using poly(Glu, Tyr) 4:1 as substrate incubated for 40 mins in presence of [gamma33P]ATP by scintillation counting based radiometry assay relative to control
[7] = biological target: Phosphatidylinositol 5-phosphate 4-kinase type-2 alpha (Homo sapiens) (UniProt P48426); experiment: Inhibition of recombinant full-length human PIP4K2alpha assessed as residual activity at 10 uM using phosphatidylinositol 5-phosphate as substrate by HTRF assay relative to control
[8] = tested on: Fibroblast growth factor receptor 1 (Homo sapiens), P11362 [V561M]; experiment: Inhibition of recombinant human FGFR1 V561M mutant (456 to 765 residues) assessed as residual activity at 10 uM using KKKSPGEYVNIEF as substrate at 40 mins in presence of [gamma-33ATP] by scintillation counting based radiometry assay relative to control
[9] = tested on: Hepatocyte growth factor receptor (Homo sapiens), P08581 [Y1230H]; experiment: Inhibition of recombinant human MET A1209G/V1290L/Y1248H mutant (974 to end residues) assessed as residual activity at 10 uM using KKKGQEEEYVFIE as substrate incubated for 40 mins in presence of [gamma-33ATP by scintillation counting based radiometry assay relative to control
[10] = biological target: CDK3/Cyclin E (Homo sapiens) (UniProt P24864+Q00526); experiment: Inhibition of recombinant full length human CDK3/CyclinE assessed as residual activity at 10 uM using Histone H1 as substrate incubated for 40 mins in presence of [gamma-33ATP] by scintillation counting based radiometry assay relative to control; type: protein-complex assay
[11] = biological target: Serine/threonine-protein kinase 33 (Homo sapiens) (UniProt Q9BYT3); experiment: Inhibition of recombinant full-length human STK33 assessed as residual activity at 10 uM using myelin basic protein as substrate incubated for 40 mins in presence of [gamma33P]ATP by scintillation counting based radiometry assay relative to control
[12] = biological target: Cyclin-dependent kinase 5/CDK5 activator 1 (Homo sapiens) (UniProt Q00535+Q15078); experiment: Inhibition of recombinant full length human CDK5/p25 assessed as residual activity at 10 uM using histone H1 as substrate incubated for 40 mins in presence of [gamma-33ATP] by scintillation counting based radiometry assay relative to control; type: protein-complex assay
[13] = biological target: Calcium/calmodulin-dependent protein kinase type II subunit gamma (Homo sapiens) (UniProt Q13555); experiment: Inhibition of recombinant human CaMK2gamma (1 to 330 residues) assessed as residual activity at 10 uM using […] incubated for 40 mins in presence of [gamma-33ATP] by scintillation counting based radiometry assay relative to control
[14] = biological target: Tyrosine-protein kinase HCK (Homo sapiens) (UniProt P08631); experiment: Inhibition of human HCK activated (230 to 497 residues) assessed as residual activity at 10 uM using GGMEDIYFEFMGGKKK as substrate after 40 mins by [gamma-33ATP] radiometric assay relative to control
[15] = biological target: CDK2/Cyclin A1 (Homo sapiens) (UniProt P24941+P78396); experiment: Inhibition of recombinant full length human CDK2/CyclinA assessed as residual activity at 10 uM using Histone H1 as substrate incubated for 40 mins in presence of [gamma-33ATP] by scintillation counting based radiometry assay relative to control; type: protein-complex assay
[16] = biological target: Tyrosine-protein kinase Lck (Homo sapiens) (UniProt P06239); experiment: Inhibition of recombinant full length human LCK activated assessed as residual activity at 10 uM using KVEKIGEGTYGVVYK as substrate after 40 mins in presence of [gamma-33ATP] by scintillation counting based radiometry assay relative to control
[17] = biological target: cGMP-dependent protein kinase 2 (Homo sapiens) (UniProt Q13237); experiment: Inhibition of recombinant full-length human PRKG2 assessed as residual activity at 10 uM using KKLRRTLSFAEPG as substrate incubated for 40 mins in presence of [gamma33P]ATP by scintillation counting based radiometry assay relative to control
[18] = biological target: Serine/threonine-protein kinase TAO1 (Homo sapiens) (UniProt Q7L7X3); experiment: Inhibition of recombinant human TAO1 (1 to 327 residues) assessed as residual activity at 10 uM using myelin basic protein as substrate incubated for 40 mins in presence of [gamma33P]ATP by scintillation counting based radiometry assay relative to control
[19] = biological target: MAP kinase-activated protein kinase 3 (Homo sapiens) (UniProt Q16644); experiment: Inhibition of recombinant human MAPKAPK3 (2 to end residues) assessed as residual activity at 10 uM using KKLNRTLSVA as substrate incubated for 40 mins in presence of [gamma-33ATP by scintillation counting based radiometry assay relative to control
[20] = biological target: Serine/threonine-protein kinase PAK 1 (Homo sapiens) (UniProt Q13153); experiment: Inhibition of recombinant human PAK1 (150 to end residues) assessed as residual activity at 10 uM using RRRLSFAEPG as substrate measured after 40 mins in presence of [gamma33P]ATP by scintillation counting based radiometry assay relative to control
[21] = biological target: Serine/threonine-protein kinase 10 (Homo sapiens) (UniProt O94804); experiment: Inhibition of recombinant human LOK (1 to 348 residues) assessed as residual activity at 10 uM using RLGRDKYKTLRQI as substrate after 40 mins in presence of [gamma-33ATP] by scintillation counting based radiometry assay relative to control

Serine/threonine-protein kinase PAK 1 (Homo sapiens), sequence (Q13153 whole entry, the tested form may be a part): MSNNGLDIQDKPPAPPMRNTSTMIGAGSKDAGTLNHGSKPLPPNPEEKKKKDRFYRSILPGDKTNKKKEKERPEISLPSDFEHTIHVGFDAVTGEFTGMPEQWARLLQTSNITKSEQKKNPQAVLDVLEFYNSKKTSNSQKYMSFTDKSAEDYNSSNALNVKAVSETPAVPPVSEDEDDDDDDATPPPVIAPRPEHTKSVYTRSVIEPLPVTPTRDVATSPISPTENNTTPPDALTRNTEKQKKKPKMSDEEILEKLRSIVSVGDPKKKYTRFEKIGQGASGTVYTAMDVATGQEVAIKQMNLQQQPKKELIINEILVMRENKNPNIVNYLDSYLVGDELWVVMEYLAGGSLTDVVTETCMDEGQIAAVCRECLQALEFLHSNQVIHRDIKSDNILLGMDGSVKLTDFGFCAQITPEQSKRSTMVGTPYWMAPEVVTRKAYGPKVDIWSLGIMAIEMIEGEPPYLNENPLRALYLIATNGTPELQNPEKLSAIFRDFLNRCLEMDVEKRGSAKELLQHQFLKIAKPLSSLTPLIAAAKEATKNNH
Calcium/calmodulin-dependent protein kinase type II subunit gamma (Homo sapiens), sequence (Q13555 whole entry, the tested form may be a part): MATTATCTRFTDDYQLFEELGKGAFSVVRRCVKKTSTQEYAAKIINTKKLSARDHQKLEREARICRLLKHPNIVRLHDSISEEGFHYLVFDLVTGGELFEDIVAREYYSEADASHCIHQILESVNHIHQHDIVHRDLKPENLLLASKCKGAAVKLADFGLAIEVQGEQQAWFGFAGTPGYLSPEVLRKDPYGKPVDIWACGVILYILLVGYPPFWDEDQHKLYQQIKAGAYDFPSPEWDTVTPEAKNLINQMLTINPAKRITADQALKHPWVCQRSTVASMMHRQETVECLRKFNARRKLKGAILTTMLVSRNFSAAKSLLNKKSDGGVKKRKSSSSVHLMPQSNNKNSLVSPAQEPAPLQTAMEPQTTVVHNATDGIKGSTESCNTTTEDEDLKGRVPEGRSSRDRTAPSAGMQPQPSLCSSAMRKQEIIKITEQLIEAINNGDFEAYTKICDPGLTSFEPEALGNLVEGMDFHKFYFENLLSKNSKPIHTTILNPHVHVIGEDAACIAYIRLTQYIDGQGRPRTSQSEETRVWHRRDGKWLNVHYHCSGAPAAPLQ
cGMP-dependent protein kinase 2 (Homo sapiens), sequence (Q13237 whole entry, the tested form may be a part): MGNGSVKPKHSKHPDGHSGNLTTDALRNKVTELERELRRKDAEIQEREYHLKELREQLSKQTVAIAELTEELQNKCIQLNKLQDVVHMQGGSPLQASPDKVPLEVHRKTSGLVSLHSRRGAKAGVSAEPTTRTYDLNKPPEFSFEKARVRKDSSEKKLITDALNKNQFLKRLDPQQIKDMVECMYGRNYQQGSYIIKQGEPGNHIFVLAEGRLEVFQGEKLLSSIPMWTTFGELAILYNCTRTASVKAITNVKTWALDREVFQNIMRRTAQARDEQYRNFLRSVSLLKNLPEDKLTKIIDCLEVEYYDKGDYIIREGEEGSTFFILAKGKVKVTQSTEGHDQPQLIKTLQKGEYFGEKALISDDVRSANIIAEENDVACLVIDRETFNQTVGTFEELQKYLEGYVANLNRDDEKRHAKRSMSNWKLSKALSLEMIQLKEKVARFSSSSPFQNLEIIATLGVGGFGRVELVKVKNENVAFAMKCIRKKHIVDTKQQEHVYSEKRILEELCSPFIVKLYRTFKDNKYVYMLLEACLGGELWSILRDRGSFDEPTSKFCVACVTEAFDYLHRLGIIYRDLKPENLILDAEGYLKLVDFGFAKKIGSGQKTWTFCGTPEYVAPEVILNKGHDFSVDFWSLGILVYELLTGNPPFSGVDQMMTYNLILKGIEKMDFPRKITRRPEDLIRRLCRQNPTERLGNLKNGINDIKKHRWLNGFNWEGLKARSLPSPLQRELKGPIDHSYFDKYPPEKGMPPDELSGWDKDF
Serine/threonine-protein kinase TAO1 (Homo sapiens), sequence (Q7L7X3 whole entry, the tested form may be a part): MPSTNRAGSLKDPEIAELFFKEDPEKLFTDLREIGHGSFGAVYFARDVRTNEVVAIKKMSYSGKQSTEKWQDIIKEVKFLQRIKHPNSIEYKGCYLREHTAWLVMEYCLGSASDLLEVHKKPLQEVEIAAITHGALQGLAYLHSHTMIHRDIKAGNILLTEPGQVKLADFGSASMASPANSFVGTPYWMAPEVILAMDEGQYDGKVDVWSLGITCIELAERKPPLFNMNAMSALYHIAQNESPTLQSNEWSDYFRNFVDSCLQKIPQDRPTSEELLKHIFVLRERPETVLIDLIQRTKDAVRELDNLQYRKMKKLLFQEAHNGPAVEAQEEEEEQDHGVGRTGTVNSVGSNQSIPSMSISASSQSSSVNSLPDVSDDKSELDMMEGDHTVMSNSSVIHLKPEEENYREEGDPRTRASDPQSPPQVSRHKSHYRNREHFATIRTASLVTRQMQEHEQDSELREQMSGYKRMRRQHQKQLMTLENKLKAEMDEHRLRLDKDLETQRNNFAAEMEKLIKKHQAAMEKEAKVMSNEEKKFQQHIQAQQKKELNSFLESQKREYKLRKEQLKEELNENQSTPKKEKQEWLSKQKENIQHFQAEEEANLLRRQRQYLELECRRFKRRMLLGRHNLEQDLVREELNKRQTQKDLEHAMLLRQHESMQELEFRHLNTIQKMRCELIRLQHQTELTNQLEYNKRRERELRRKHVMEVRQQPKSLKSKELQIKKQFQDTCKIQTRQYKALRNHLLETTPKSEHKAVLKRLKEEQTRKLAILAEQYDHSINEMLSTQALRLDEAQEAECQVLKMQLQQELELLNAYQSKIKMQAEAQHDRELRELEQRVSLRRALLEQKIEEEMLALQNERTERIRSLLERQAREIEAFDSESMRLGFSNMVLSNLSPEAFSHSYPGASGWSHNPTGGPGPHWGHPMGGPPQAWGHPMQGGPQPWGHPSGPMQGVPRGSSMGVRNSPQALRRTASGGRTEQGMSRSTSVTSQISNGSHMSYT
CDK3/Cyclin E (Homo sapiens), sequence (P24864 whole entry, looked up): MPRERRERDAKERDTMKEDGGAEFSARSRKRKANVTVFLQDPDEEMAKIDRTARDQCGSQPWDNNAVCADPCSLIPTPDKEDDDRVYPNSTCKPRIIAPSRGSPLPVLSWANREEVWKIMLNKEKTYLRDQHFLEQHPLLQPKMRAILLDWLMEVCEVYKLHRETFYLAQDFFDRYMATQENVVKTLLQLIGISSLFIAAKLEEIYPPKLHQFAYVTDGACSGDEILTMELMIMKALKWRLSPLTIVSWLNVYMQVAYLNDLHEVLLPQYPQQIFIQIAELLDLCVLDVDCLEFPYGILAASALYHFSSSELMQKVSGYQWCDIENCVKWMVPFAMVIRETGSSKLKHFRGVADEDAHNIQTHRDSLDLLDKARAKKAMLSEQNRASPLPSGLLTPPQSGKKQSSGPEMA
CDK3/Cyclin E (Homo sapiens), sequence (Q00526 whole entry, looked up): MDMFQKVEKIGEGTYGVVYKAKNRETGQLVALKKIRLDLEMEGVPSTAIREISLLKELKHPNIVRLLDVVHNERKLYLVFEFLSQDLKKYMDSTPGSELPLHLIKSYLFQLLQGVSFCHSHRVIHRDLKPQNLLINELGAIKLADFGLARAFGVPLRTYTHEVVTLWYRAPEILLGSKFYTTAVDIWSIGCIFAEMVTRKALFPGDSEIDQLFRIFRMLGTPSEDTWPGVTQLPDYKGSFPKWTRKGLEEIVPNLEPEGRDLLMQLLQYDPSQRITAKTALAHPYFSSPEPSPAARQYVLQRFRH
Serine/threonine-protein kinase D3 (Homo sapiens), sequence (O94806 whole entry): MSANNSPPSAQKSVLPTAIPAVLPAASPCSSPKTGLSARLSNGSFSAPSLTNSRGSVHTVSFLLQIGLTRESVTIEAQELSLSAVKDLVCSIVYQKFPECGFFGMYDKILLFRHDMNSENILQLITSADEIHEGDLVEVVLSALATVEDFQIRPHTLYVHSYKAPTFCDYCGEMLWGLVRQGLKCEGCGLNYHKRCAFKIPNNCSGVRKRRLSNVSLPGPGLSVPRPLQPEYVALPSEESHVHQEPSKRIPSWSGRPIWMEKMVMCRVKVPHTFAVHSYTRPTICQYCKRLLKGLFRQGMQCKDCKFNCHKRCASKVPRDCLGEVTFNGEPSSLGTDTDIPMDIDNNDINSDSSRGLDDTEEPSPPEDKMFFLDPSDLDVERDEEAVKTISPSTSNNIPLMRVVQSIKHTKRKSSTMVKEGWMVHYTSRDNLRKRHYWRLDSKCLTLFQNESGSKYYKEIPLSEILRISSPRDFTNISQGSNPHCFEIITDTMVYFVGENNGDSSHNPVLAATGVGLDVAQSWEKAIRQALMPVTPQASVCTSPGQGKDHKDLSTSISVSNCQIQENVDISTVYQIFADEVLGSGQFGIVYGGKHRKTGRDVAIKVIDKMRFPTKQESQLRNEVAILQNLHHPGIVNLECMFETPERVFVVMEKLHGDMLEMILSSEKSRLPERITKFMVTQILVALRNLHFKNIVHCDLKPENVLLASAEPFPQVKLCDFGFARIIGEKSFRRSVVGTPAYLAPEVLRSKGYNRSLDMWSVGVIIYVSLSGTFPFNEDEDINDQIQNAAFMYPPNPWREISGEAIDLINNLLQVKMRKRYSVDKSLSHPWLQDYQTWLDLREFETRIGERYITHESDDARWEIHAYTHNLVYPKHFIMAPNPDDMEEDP
Cyclin-dependent kinase 5/CDK5 activator 1 (Homo sapiens), sequence (Q00535 whole entry, the tested form may be a part): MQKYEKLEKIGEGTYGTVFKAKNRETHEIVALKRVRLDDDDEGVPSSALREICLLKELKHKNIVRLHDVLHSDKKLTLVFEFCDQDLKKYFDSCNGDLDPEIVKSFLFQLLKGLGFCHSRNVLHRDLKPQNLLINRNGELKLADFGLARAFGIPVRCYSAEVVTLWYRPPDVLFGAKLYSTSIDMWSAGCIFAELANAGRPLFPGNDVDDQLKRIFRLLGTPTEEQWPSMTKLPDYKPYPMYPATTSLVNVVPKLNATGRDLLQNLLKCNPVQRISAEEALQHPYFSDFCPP
Cyclin-dependent kinase 5/CDK5 activator 1 (Homo sapiens), sequence (Q15078 99-307 partner limits assumed): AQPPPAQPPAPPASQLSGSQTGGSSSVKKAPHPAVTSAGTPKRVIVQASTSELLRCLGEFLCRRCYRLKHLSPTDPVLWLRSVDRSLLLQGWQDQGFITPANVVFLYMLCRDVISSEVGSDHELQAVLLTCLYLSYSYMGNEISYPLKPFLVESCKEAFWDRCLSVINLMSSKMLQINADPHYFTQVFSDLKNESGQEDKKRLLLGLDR

For `C[C@@H](c1ccccc1)n1nnc2cnc3ccc(-c4cnc5[nH]ccc5c4)cc3c21`, the Activity [1] was 85%, the Activity [2] was 70% and the Activity [3] was 53%. It also gave an Activity [4] of 51%, an Activity [5] of 67% and an Activity [6] of 41%. It also gave an Activity [7] of 95%, an Activity [8] of 22% and an Activity [9] of 79%. The Activity [10] was 71%, the Activity [11] was 91% and the Activity [12] was 93%. For the same molecule, the Activity [13] was 72%, the Activity [14] was 21% and the Activity [15] was 63%. The Activity [16] was 4%, the Activity [17] was 52% and the Activity [18] was 18%. The Activity [19] was 76%, the Activity [20] was 92% and the Activity [21] was 54%.
